Assay results taken from patent US5391540A, “Substituted pyridine compounds” (Rohm and Haas Company, priority 1993, dated 1995).

Experiments:
Assay in all cases: Pre-emergent herbicidal activity (Table A)
Type in all cases: in vivo
[1] = system: Velvetleaf; conditions: Abutilon theophrasti, pre-emergence, Vele, 11.2 kg/ha, 10-14 days, read-out: herbicidal rating (% inhibition)
Outline: (§1)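 Seeds or perennial propagules set on compacted topsoil, then covered with soil mixed with a known amount of test compound applied in acetone or water carrier. Ratings assigned on a scale based on percent inhibition of each species.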

[2] = system: Pennsylvania Smartweed; conditions: pre-emergence, Pesw, 11.2 kg/ha, 10-14 days, read-out: herbicidal rating (% inhibition)
Outline: as §1

[3] = system: Downy Brome; conditions: Bromus tectorum, pre-emergence, Dobr, 11.2 kg/ha, 10-14 days, read-out: herbicidal rating (% inhibition)
Outline: as §1

[4] = system: Quackgrass; conditions: pre-emergence, Rhqg, 11.2 kg/ha, 10-14 days, read-out: herbicidal rating (% inhibition)
Outline: as §1

[5] = system: Canada thistle; conditions: Cirsium arvense, pre-emergence, Cath, 11.2 kg/ha, 10-14 days, read-out: herbicidal rating (% inhibition)
Outline: as §1

[6] = system: Yellow Nutsedge; conditions: Cyperus, pre-emergence, Yens, 11.2 kg/ha, 10-14 days, read-out: herbicidal rating (% inhibition)
Outline: as §1

[7] = system: Rhizome Johnsongrass; conditions: Sorghum halepense, pre-emergence, Rhjg, 11.2 kg/ha, 10-14 days, read-out: herbicidal rating (% inhibition)
Outline: as §1

[8] = system: Barnyardgrass; conditions: Echinochloa crus-galli, pre-emergence, Bygr, 11.2 kg/ha, 10-14 days, read-out: herbicidal rating (% inhibition)
Outline: as §1

[9] = system: Cocklebur; conditions: Xanthium strumarium, pre-emergence, Cobu, 11.2 kg/ha, 10-14 days, read-out: herbicidal rating (% inhibition)
Outline: as §1

[10] = system: Morningglory; conditions: Ipomoea, pre-emergence, Mogl, 11.2 kg/ha, 10-14 days, read-out: herbicidal rating (% inhibition)
Outline: as §1

[11] = system: Common Lambsquarters; conditions: Chenopodium album, pre-emergence, Colq, 11.2 kg/ha, 10-14 days, read-out: herbicidal rating (% inhibition)
Outline: as §1

SMILES	inhibition at 11200 g/ha [1]	inhibition at 11200 g/ha [2]	inhibition at 11200 g/ha [3]	inhibition at 11200 g/ha [4]	inhibition at 11200 g/ha [5]	inhibition at 11200 g/ha [6]	inhibition at 11200 g/ha [7]	inhibition at 11200 g/ha [8]	inhibition at 11200 g/ha [9]	inhibition at 11200 g/ha [10]	inhibition at 11200 g/ha [11]
CCOC(=O)C1=C(C(F)(F)F)NC(=O)C(C(N)=O)C1CC(C)C (stereo not shown) [Compound 35, 3-pyridinecarboxylic acid, 5-(aminocarbonyl)-1,4,5,6-tetrahydro-4-(2-methylpropyl)-6-oxo-2-(trifluoromethyl)-, ethyl ester]	0 to 24%	0 to 24%	0 to 24%	0 to 24%	0 to 24%	0 to 24%	0 to 24%	0 to 24%	0 to 24%	0 to 24%	0 to 24%
COC(=O)c1c(OC)nc(C(F)(F)F)c(N)c1CC(C)C [Compound 36, 3-pyridinecarboxylic acid, 5-amino-2-methoxy-4-(2-methylpropyl)-6-(trifluoromethyl)-, methyl ester]	50 to 74%	75 to 100%	75 to 100%	75 to 100%	25 to 49%	0 to 24%	75 to 100%	75 to 100%	0 to 24%	50 to 74%	75 to 100%
CNC(=O)c1c(C(F)(F)F)nc(OC)c(C(=O)OC)c1CC(C)C [Compound 37, 3-pyridinecarboxylic acid, 2-methoxy-5-[(methylamino)carbonyl]-4-(2-methylpropyl)-6-(trifluoromethyl)-, methyl ester]	0 to 24%	0 to 24%	0 to 24%	0 to 24%	0 to 24%	0 to 24%	0 to 24%	0 to 24%	0 to 24%	0 to 24%	75 to 100%
COC(=O)c1c(OC)nc(C(F)(F)F)c(C(=O)NCCO)c1CC(C)C [Compound 38, 3-pyridinecarboxylic acid, 5-[[(2-hydroxyethyl)amino]carbonyl]-2-methoxy-4-(2-methylpropyl)-6-(trifluoromethyl)-, methyl ester]	0 to 24%	0 to 24%	0 to 24%	0 to 24%	0 to 24%	0 to 24%	0 to 24%	0 to 24%	0 to 24%	0 to 24%	0 to 24%
CCOC(=O)c1c(OCC)nc(C(F)(F)F)c(C(=O)OCC)c1CC(C)C [Compound 39, 3,5-pyridinedicarboxylic acid, 2-ethoxy-4-(2-methylpropyl)-6-(trifluoromethyl)-, diethyl ester]	50 to 74%	75 to 100%	75 to 100%	0 to 24%	0 to 24%	0 to 24%	0 to 24%	75 to 100%	0 to 24%	25 to 49%	75 to 100%
COC(=O)c1c(OC)nc(C(F)(F)F)c(CO)c1CC(C)C [Compound 40, 3-pyridinecarboxylic acid, 5-(hydroxymethyl)-2-methoxy-4-(2-methylpropyl)-6-(trifluoromethyl)-, methyl ester]	25 to 49%	75 to 100%	75 to 100%	75 to 100%	0 to 24%	0 to 24%	0 to 24%	75 to 100%	0 to 24%	0 to 24%	75 to 100%
CN=C(SC)c1c(C(F)(F)F)nc(OC)c(C(=O)OC)c1CC(C)C [Compound 41, 3-pyridinecarboxylic acid, 2-methoxy-5-[(methylimino)(methylthio)methyl]-4-(2-methylpropyl)-6-(trifluoromethyl)-, methyl ester]	75 to 100%	75 to 100%	75 to 100%	75 to 100%	75 to 100%	0 to 24%	0 to 24%	75 to 100%	25 to 49%	75 to 100%	75 to 100%
COC(=O)c1c(OC)nc(C(F)(F)F)c(C(=O)n2cccn2)c1CC(C)C [Compound 42, 3-pyridinecarboxylic acid, 2-methoxy-4-(2-methylpropyl)-5-(1H-pyrazo1-1-ylcarbonyl)-6-(trifluoromethyl)-, methyl ester]	75 to 100%	75 to 100%	75 to 100%	75 to 100%	75 to 100%	50 to 74%	50 to 74%	75 to 100%	75 to 100%	75 to 100%	75 to 100%
COC(=O)c1c(OC)nc(C(F)(F)F)c(C2=NCCO2)c1CC(C)C [Compound 43, 3-pyridinecarboxylic acid, 5-(4,5-dihydro-2-oxazolyl)-2-methoxy-4-(2-methylpropyl)-6-(trifluoromethyl)-, methyl ester]	75 to 100%	75 to 100%	75 to 100%	75 to 100%	75 to 100%	75 to 100%	75 to 100%	75 to 100%	50 to 74%	75 to 100%	75 to 100%
CCOC(=O)c1c(C(F)(F)F)nc(OC)c(C(=O)OC)c1CC(C)C [Compound 44, 3,5-pyridinedicarboxylic acid, 2-methoxy-4-(2-methylpropyl)-6-(trifluoromethyl)-, 5-ethyl 3-methyl ester]	75 to 100%	75 to 100%	75 to 100%	75 to 100%	75 to 100%	75 to 100%	75 to 100%	75 to 100%	25 to 49%	75 to 100%	75 to 100%
CCOc1nc(C(F)(F)F)c(C(=O)SC)c(CC(C)C)c1C(=O)OC [Compound 45, 3-pyridinecarboxylic acid, 2-ethoxy-4-(2-methylpropyl)-5-[(methylthio)carbonyl]-6-(trifluoromethyl)-, methyl ester]	75 to 100%	75 to 100%	75 to 100%	75 to 100%	75 to 100%	75 to 100%	75 to 100%	75 to 100%	0 to 24%	75 to 100%	75 to 100%
CCOc1nc(C(F)(F)F)c(C(=NC)SC)c(CC(C)C)c1C(=O)OC [Compound 46, 3-pyridinecarboxylic acid, 2-ethoxy-5-[(methylimino)(methylthio)methyl]-4-(2-methylpropyl)-6-(trifluoromethyl)-, methyl ester]	50 to 74%	75 to 100%	75 to 100%	75 to 100%	75 to 100%	0 to 24%	0 to 24%	75 to 100%	0 to 24%	75 to 100%	75 to 100%
COc1nc(C(F)(F)F)c(C(=O)SC)c(CC(C)C)c1C(=O)SC [Compound 47, 3,5-pyridinedicarbothioic acid, 2-methoxy-4-(2-methylpropyl)-6-(trifluoromethyl)-, S,S,-dimethyl ester]	75 to 100%	75 to 100%	75 to 100%	75 to 100%	75 to 100%	75 to 100%	75 to 100%	75 to 100%	25 to 49%	75 to 100%	75 to 100%
COC(=O)c1c(OC)nc(C(F)(F)F)c(C(=O)OC)c1C1CCC1 [Compound 48, 3,5-pyridinedicarboxylic acid, 4-cyclobuty1-2-methoxy-6-(trifluoromethyl)-, dimethyl ester]	75 to 100%	75 to 100%	75 to 100%	75 to 100%	75 to 100%	75 to 100%	75 to 100%	75 to 100%	75 to 100%	75 to 100%	75 to 100%
